Assay results as given in patent US20110237436A1, “Hydrate and anhydrous crystal form of the sodium salt of 2-iodo-N-[(4-methoxy-6-methyl-1,3,5-triazin-2-yl)carbamoyl]benzenesulfonamide, process for preparation thereof and use thereof as herbicides and plant growth regulators” (BAYER CROPSCIENCE AG, priority 2010, published 2011).

What was measured:
[1] = Stability tests: storage of oil dispersions of the active ingredient; format: physicochemical
Source text: The oil dispersions described were produced analogously to DE 19951427.

[2] = Practical testing of suspension formulations; format: physicochemical; settings: effects occur spontaneously or over a longer period
Source text: The compound of the formula (I) known, for example, from WO 2009/053058 (compound I-2 in table 1 therein) has herbicidal properties and is suitable for the production of crop protection compositions which can be employed for weed control. […] User-friendly administration forms are, for example, suspension formulations or solid formulations in which the compound of the formula (I) is present in finely ground, solid form. […] There may, for example, be precipitation, crystal growth or solidification, such that the suspension formulation becomes unusable. These effects can occur spontaneously or over a longer period and cannot be foreseen.

[3] = in the course of production of oil dispersions or storage at room temperature, within hours or a few days
[4] = oil dispersion produced analogously to DE 19951427, storage at different temperatures for several weeks

| Compound | change in viscosity of the oil dispersions [1, 3] | precipitation or crystallization of the active ingredient in the oil dispersion [1, 3] | physical stability of suspension formulations [2] | change in the viscosity of the oil dispersions [1, 4] | signs of precipitation or crystallization of the active ingredient in the oil dispersion [1, 4] |
| --- | --- | --- | --- | --- | --- |
| COc1nc(C)nc(NC(=O)[N-]S(=O)(=O)c2ccccc2I)n1.[Na+] [amorphous sodium salt, sodium salt of 2-iodo-N-[(4-methoxy-6-methyl-1,3,5-triazin-2-yl)carbamoyl]benzenesulfonamide] | significant rises in viscosity, up to and including complete solidification | precipitation or crystallization of the active ingredient | physically unstable formulations | – | – |
| COc1nc(C)nc(NC(=O)[N-]S(=O)(=O)c2ccccc2I)n1.[Na+] [hydrate, hydrate of the sodium salt of 2-iodo-N-[(4-methoxy-6-methyl-1,3,5-triazin-2-yl)carbamoyl]benzenesulfonamide] | – | – | – | Nor was any change found in the viscosity | did not exhibit any signs of precipitation or crystallization of the active ingredient |
